Test results taken from US6727232B2, “Nucleoside peptide antibiotics of AA-896” (Wyeth Holdings Corporation, priority 2001, dated 2004).
Converted amounts (≈) assume the structure as drawn.

Experiments:
Assay in all cases: Broth dilution MIC
Assay type in all cases: cell-based
CNS GC 4537 = conditions: 18 h, read-out: Antimicrobial Activity (MIC)
Description: (§1) The in vitro antibacterial activity of Example 1 through Example 20 is determined against a spectrum of Gram-positive and Gram-negative bacteria by a standard broth dilution method. Serial dilution of the compounds are made in Mueller-Hinton broth and inoculated with a bacterial suspension. The lowest concentration of compound that inhibited the growth of a bacterial strain after 18 hours of incubation at 35° C. is reported as the minimal inhibitory concentration (MIC) for that strain.

CNS GC 4538 = conditions: 18 h, read-out: Antimicrobial Activity (MIC)
Description: as §1

CNS GC 4547 = conditions: 18 h, read-out: Antimicrobial Activity (MIC)
Description: as §1

E. cloacae GC 3783 = conditions: Enterobacter cloacae, GC3783, 18 h, read-out: Antimicrobial Activity (MIC)
Description: as §1

E. coli GC 2203 = conditions: Escherichia coli, GC2203, 18 h, read-out: Antimicrobial Activity (MIC)
Description: as §1

E. coli GC 3226 = conditions: Escherichia coli, GC3226, 18 h, read-out: Antimicrobial Activity (MIC)
Description: as §1

E. coli GC 4559 = conditions: Escherichia coli, GC4559, 18 h, read-out: Antimicrobial Activity (MIC)
Description: as §1

E. coli GC 4560 = conditions: Escherichia coli, GC4560, 18 h, read-out: Antimicrobial Activity (MIC)
Description: as §1

E. faecalis GC 2242 = conditions: Enterococcus faecalis, GC2242, 18 h, read-out: Antimicrobial Activity (MIC)
Description: as §1

E. faecalis GC 4555 = conditions: Enterococcus faecalis, GC4555, 18 h, read-out: Antimicrobial Activity (MIC)
Description: as §1

E. faecalis GC 842 = conditions: Enterococcus faecalis, GC842, 18 h, read-out: Antimicrobial Activity (MIC)
Description: as §1

K. pneumoniae GC 4534 = conditions: Klebsiella pneumoniae, GC4534, 18 h, read-out: Antimicrobial Activity (MIC)
Description: as §1

M. morganii GC 4531 = conditions: Morganella morganii, GC4531, 18 h, read-out: Antimicrobial Activity (MIC)
Description: as §1

P. aeruginosa GC 2214 = conditions: Pseudomonas aeruginosa, GC2214, 18 h, read-out: Antimicrobial Activity (MIC)
Description: as §1

P. aeruginosa GC 4532 = conditions: Pseudomonas aeruginosa, GC4532, 18 h, read-out: Antimicrobial Activity (MIC)
Description: as §1

P. rettgeri GC 4530 = conditions: Providencia rettgeri, GC4530, 18 h, read-out: Antimicrobial Activity (MIC)
Description: as §1

S. aureus GC 1131 = conditions: Staphylococcus aureus, GC1131, 18 h, read-out: Antimicrobial Activity (MIC)
Description: as §1

S. aureus GC 2216 = conditions: Staphylococcus aureus, GC2216, 18 h, read-out: Antimicrobial Activity (MIC)
Description: as §1

S. aureus GC 4536 = conditions: Staphylococcus aureus, GC4536, 18 h, read-out: Antimicrobial Activity (MIC)
Description: as §1

S. marcescens GC 4077 = conditions: Serratia marcescens, GC4077, 18 h, read-out: Antimicrobial Activity (MIC)
Description: as §1

CO[C@H]1C(O[C@H](C2C(=O)N(c3ccc(F)cc3)C(=O)N2CCCNC(=O)C(NC(=O)C(NC(=O)NC(C(=O)O)C(C)C)C2CCNC(=N)N2)C(O)C(C)C)[C@H]2O[C@@H](n3ccc(=O)[nH]c3=O)[C@H](O)[C@@H]2O)O[C@H](CN)[C@@H]1O (stereo partly drawn) [Example 1, 14-[5-((R)-{[(3R,4S,5R)-5-(Aminomethyl)-4-hydroxy-3-methoxytetrahydro-2-furanyl]oxy}{(2S,3S,4R,5R)-5-[2,4-dioxo-3,4-dihydro-1 (2H)-pyrimidinyl]-3,4-dihydroxytetrahydro-2-furanyl}methyl)-3-(4-fluorophenyl)-2,4-dioxo-1-imidazolidinyl]-9-(1-hydroxy-2-methylpropyl)-6-(2-iminohexahydro-4-pyrimidinyl)-2-isopropyl-4,7,10-trioxo-3,5,8,11-tetraazatetradecan-1-oic acid]
MIC (CNS GC 4537): > 32 µg/mL | MIC (CNS GC 4538): 32 µg/mL (≈ 30 µM) | MIC (CNS GC 4547): > 32 µg/mL | MIC (E. cloacae GC 3783): > 32 µg/mL | MIC (E. coli GC 2203): > 32 µg/mL | MIC (E. coli GC 3226): > 32 µg/mL | MIC (E. coli GC 4559): > 32 µg/mL | MIC (E. coli GC 4560): 64 µg/mL (≈ 60.1 µM) | MIC (E. faecalis GC 2242): > 32 µg/mL | MIC (E. faecalis GC 4555): > 32 µg/mL | MIC (E. faecalis GC 842): > 32 µg/mL | MIC (K. pneumoniae GC 4534): > 32 µg/mL | MIC (M. morganii GC 4531): > 32 µg/mL | MIC (P. aeruginosa GC 2214): > 32 µg/mL | MIC (P. aeruginosa GC 4532): > 32 µg/mL | MIC (P. rettgeri GC 4530): > 32 µg/mL | MIC (S. aureus GC 1131): > 32 µg/mL | MIC (S. aureus GC 2216): > 32 µg/mL | MIC (S. aureus GC 4536): > 32 µg/mL | MIC (S. marcescens GC 4077): > 32 µg/mL
